Results from US7951562B2, “Method for glycosylating hydroxylysine residues in polypeptides or peptides” (Oulun Yliopisto, priority 2000, dated 2011).
Values joined by “and” are separate entries in the source; they are usually repeats but may differ in a detail not shown here. Equal values may be shown once.

Assays:
Type in all cases: biochemical
[1] = biological target: T1, GGT activity of the protein produced in E. coli cells with human LH3 cDNA (Homo sapiens, UniProt O60568); assay: Effect of imidazole on GGT activity of protein produced in E. coli with human LH3 cDNA
T1 construct: made in house; host or cells: E. coli XL1-Blue (pQE30)
T1 sequence (O60568 25-738): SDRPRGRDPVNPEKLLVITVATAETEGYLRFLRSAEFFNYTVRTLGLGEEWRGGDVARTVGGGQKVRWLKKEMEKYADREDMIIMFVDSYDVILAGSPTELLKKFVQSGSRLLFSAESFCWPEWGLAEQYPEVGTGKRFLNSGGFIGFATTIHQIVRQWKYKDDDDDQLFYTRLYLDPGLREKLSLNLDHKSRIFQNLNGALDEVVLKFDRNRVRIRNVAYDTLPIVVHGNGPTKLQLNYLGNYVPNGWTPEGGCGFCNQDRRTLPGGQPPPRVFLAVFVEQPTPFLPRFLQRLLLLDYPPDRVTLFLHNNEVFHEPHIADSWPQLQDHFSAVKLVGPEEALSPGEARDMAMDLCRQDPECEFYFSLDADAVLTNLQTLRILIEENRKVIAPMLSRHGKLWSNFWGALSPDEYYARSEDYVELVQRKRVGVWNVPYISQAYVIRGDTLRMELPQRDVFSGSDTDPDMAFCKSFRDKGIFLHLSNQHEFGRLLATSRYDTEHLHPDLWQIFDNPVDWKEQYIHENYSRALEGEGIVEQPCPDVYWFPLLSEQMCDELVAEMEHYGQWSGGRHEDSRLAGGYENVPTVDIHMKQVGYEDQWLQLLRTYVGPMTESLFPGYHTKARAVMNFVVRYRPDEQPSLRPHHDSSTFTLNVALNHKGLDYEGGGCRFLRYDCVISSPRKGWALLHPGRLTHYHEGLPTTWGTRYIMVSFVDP
Experimental: (§1) PFastBacI constructs for human LH1, LH2a, LH2b and LH3 were cleaved with BamHI and Hind III restriction enzymes and coding regions were subcloned into same site in E. coli expression vector pQE30 containing (His)6 tag at the amino terminus. Insert for C. elegans LH (corresponding to amino acids 14-730 in cDNA) was generated by PCR and ligated into SacI-PstI site of pOE30 vector. Constructs were transformed into E. coli XL1-Blue strain. Cultures were grown to OD600 of 0.6 at 37° C. Protein expression was induced by adding 1 mM IPTG and incubation was proceed at 30° C. for 5 hours. Cells were harvested and stored at −20° C. For activity measurements cell pellet was suspended to lysis buffer (0.4 M NaCl, 0.5% Nonident and 20 mM Tris-HCl pH 7.8, at 20° C.) and incubated in the presence of lysozyme (50 μg/ml), DNAase (10 μg/ml) and RNAase (10 μg g/ml) at room temperature for 30 minutes. Lysis was completed by sonication. Cell debris was pelleted and supernatant was used in the measurements.
(§2) GT and GGT activities were measured by a method based on the transfer of radioactively (tritium)-labeled sugar from UDP-sugar to hydroxylysyl or galactosylhydroxylysyl residues in a calf skin gelatin substrate, respectively (Myllylä et al. 1975). The specific detection of the reaction products was performed after alkaline hydrolysis.

[2] = biological target: T2, GT activity of the protein produced in E. coli cells with human LH3 cDNA (Homo sapiens, UniProt O60568); assay: Effect of imidazole on GT activity of protein produced in E. coli with human LH3 cDNA
T2 construct: made in house; host or cells: E. coli XL1-Blue (pQE30)
T2 sequence (O60568 25-738): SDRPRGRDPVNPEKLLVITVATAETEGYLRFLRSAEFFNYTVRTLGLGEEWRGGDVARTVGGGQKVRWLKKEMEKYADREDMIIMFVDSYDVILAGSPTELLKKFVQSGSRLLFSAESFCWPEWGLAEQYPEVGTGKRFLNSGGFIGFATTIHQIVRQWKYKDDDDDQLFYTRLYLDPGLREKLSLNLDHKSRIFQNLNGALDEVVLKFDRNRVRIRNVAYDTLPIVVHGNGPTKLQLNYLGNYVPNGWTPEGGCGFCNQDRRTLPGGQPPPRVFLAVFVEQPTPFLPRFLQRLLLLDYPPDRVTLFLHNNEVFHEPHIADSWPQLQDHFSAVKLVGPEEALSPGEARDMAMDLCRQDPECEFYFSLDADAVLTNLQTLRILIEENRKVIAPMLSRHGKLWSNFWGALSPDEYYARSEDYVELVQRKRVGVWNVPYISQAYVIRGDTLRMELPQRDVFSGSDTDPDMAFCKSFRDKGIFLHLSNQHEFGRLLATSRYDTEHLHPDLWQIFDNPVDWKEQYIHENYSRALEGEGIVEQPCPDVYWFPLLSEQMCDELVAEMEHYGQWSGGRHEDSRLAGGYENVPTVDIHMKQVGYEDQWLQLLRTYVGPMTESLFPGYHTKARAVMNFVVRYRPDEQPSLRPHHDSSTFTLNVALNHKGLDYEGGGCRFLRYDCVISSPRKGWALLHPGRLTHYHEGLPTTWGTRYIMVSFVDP
Experimental: as §1, §2

[3] = biological target: T3, GGT activity of His-tagged LH3 (Homo sapiens, UniProt O60568); assay: Effect of imidazole on GGT activity of His-tagged LH3 from Sf9 cells
T3 construct: human LH1 signal peptide (N, cleaved yes); made in house; host or cells: Sf9 insect cells, baculovirus (pFastBacI, BAC-TO-BAC)
T3 sequence (O60568 25-738): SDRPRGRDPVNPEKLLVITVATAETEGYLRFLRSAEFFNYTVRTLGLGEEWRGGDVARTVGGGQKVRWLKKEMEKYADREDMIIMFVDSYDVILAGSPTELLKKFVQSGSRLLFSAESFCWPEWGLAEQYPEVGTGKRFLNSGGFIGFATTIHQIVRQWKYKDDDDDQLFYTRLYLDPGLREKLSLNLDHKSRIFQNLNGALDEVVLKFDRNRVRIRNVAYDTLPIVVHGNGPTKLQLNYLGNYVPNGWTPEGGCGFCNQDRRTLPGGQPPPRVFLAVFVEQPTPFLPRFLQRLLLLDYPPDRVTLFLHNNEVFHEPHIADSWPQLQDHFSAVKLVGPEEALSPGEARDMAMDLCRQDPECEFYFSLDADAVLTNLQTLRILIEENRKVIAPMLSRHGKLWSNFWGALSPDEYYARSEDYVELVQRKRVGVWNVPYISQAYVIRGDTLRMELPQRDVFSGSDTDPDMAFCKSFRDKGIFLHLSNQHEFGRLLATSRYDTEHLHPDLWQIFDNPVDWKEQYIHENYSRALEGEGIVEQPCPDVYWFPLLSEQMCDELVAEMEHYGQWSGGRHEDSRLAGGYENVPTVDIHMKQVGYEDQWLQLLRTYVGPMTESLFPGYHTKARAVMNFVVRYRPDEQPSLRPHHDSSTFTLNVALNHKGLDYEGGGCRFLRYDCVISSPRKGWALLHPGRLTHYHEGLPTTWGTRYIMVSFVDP
Experimental: (§3) LH activity was assayed by a method based on the hydroxylation-coupled decarboxylation of 2-oxo(1-^14C)glutarate (Kivirikko and Myllylä 1982), synthetic peptide […] was used as a substrate. GGT activity was assayed as described elsewhere (Myllylä et al. 1975). The method is based on the transfer of radioactively (tritium) labelled glucose from UDP-glucose to galactosylhydroxylysyl residues in calf skin gelatin substrate and on the specific assay of the product of the enzyme reaction after alkaline hydrolysis.
(§4) LH3 was expressed in Sf9 cells as a protein with His-tag at the amino-terminus. This enabled us to use nickel column in the purification of the protein from the cell extract of insect cells, because nickel-charged agaroses are developed for the purification of recombinant proteins containing a polyhistidine (6×His) as a tag. […] No lysyl hydroxylase activity could be detected in the eluate, however. We have determined that imidazole is a potent inhibitor of lysyl hydroxylase activity. […] Imidazole in the concentration of 100 mM and 10 mM inactivated lysyl hydroxylase activity by 55% and 20%, respectively.

[4] = biological target: T4, lysyl hydroxylase activity of His-tagged LH3 (Homo sapiens, UniProt O60568); assay: Inactivation of lysyl hydroxylase activity by imidazole
T4 construct: human LH1 signal peptide (N, cleaved yes); made in house; host or cells: Sf9 insect cells, baculovirus
T4 sequence (O60568 25-738): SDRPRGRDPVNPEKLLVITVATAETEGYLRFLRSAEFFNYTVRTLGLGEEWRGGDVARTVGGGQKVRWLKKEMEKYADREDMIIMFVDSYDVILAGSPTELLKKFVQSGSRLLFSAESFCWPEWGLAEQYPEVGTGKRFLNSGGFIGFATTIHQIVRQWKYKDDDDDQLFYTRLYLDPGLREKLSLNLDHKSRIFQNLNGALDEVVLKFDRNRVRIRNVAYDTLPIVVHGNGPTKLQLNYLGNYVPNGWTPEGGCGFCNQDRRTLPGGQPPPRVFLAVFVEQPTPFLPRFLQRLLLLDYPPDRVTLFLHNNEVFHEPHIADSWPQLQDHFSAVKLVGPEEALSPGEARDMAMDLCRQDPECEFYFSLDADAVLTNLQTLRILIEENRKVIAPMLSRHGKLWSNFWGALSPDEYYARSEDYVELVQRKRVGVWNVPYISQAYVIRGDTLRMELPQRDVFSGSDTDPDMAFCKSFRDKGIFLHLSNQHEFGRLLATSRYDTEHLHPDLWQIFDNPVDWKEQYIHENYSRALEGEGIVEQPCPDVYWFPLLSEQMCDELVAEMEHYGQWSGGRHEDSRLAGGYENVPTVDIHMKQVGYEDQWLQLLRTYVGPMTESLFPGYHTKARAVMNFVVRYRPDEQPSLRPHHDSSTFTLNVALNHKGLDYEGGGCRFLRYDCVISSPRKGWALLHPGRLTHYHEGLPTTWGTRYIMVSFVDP
Experimental: as §3, §4

[5] = system: galactosylhydroxylysyl residues in a calf skin gelatin substrate; assay: GGT activity of recombinant proteins expressed in E. coli; settings: E. coli supernatant, 5 h IPTG induction, stored at −70° C. overnight; listed as LH cDNA

Molecule: c1c[nH]cn1 [imidazole]
- GGT activity ([1]; 10 mM imidazole (no inhibitor: 667.000)): 583.000 dpm/mg
- GGT activity ([1]; 100 mM imidazole (no inhibitor: 667.000)): 599.000 dpm/mg
- inhibition at 300000 µM ([1]; 300 mM imidazole): ~30%
- GGT activity ([1]; 300 mM imidazole (no inhibitor: 667.000)): 459.000 dpm/mg
- GT activity ([2]; 10 mM imidazole (no inhibitor: 760.000)): 795.000 dpm/mg
- GT activity ([2]; 100 mM imidazole (no inhibitor: 760.000)): 605.000 dpm/mg
- inhibition at 300000 µM ([2]; 300 mM imidazole): 60%
- GT activity ([2]; 300 mM imidazole (no inhibitor: 760.000)): 310.000 dpm/mg
- effect on GGT activity ([3]; 10 mM to 100 mM imidazole): no effect
- inhibition at 300000 µM ([3]; 300 mM imidazole): 25%
- inactivation of lysyl hydroxylase activity ([4]; 10 mM imidazole): 20%
- inactivation of lysyl hydroxylase activity ([4]; 100 mM imidazole): 55%
- inactivation of lysyl hydroxylase activity ([4]; 300 mM imidazole, 2 h on ice): almost complete inactivation

B1: C. elegans LH: protein produced from Caenorhabditis elegans lysyl hydroxylase cDNA (amino acids 14-730) (protein)
chain: LLATTITDLPELVVVTVATENTDGLKRLLESAKAFDINIEVLGLGEKWNGGDTRIEQGGGQKIRILSDWIEKYKDASDTMIMFVDAYDVVFNADSTTILRKFFEHYSEKRLLFGAEPFCWPDQSLAPEYPIVEFGKRFLNSGLFMGYGPEMHKILKLKSVEDKDDDQLYYTMIYLDEKLRKELNMDLDSMSKIFQNLNGVIEDVELQFKEDGTPEAYNAAYNTKPLIVHGNGPSKSHLNYLGNYLGNRWNSQLGCRTCGLEVKESEEVPLIALNLFISKPIPFIEEVLQKIAEFDYPKEKIALYIYNNQPFSIKNIQDFLQKHGKSYYTKRVINGVTEIGDREARNEAIEWNKARNVEFAFLMDGDAYFSEPKVIKDLIQYSKTYDVGIIAPMIGQPGKLFTNFWGAIAANGYYARSEDYMAIVKGNRVGYWNVPFITSAVLFNKEKLEAMKDAYSYNKNLDPDMSMCKFARDNGHFLYIDNEKYYGFLIVSDEYAETVTEGKWHPEMWQIFENRELWEARYIHPGYHKIMEPEHVVDQACPDVYDFPLMSERFCEELIEEMEGFGRWSDGSNNDKRLAGGYENVPTRDIHMNQVGFERQWLYFMDTYVRPVQEKTFIGYYHQPVESNMMFVVRYKPEEQPSLRPHHDASTFSIDIALNKKGRDYEGGGVRYIRYNCTVPADEVGYAMMFPGRLTHLHEGLATTKGTRYIMVSFINP
modifications: Caenorhabditis elegans
- GGT enzyme activity [5]: 30.700 dpm/mg soluble protein and 21.000 dpm/mg soluble protein
